Test results as given in patent US20070010671A1, “Novel quinazoline derivatives and methods of treatment related to the use thereof” (priority 2003, published 2007).

These compounds were tested against MCH receptor (Homo sapiens, UniProt Q99705) (assay: High throughput functional screening FLIPR/FDSS6000: inhibition of MCH-evoked intracellular Ca2+ changes). Conditions: class by percent of control at 10^-7 M or IC50.
Assay type: cell-based
Method in brief: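 Cells expressing a non-endogenous, constitutively active MCH receptor were loaded with 4 μM Fluo4-AM (with probenecid) for 1 hr at 37° C. Test compound was preincubated 3 min at 37° C before 50 nM MCH was added. The [Ca2+]i transient was read at Ex 488/Em 530 nm for 290 s.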
With `CN(C)c1nc(N[C@H]2CC[C@@H](CNC(=O)Nc3ccccc3Br)CC2)nc2ccccc12` [compound 411, N-(2-bromophenyl)-N′-[(cis-4-{[4-(dimethylamino)quinazolin-2-yl]amino}cyclohexyl)methyl]urea] the class was 2 (Class 2: The value of percent of control at 10^−7 M was from 40% to 60% or the value of IC50 was from 50 nM to 200 nM.). In the case of `CN(C)c1nc(N[C@H]2CC[C@@H](CNC(=O)Nc3ccccc3-c3ccccc3)CC2)nc2ccccc12` [compound 412, N-biphenyl-2-yl-N′-[(cis-4-{[4-(dimethylamino)quinazolin-2-yl]amino}cyclohexyl)methyl]urea], the class is reported as 2 (Class 2: The value of percent of control at 10^−7 M was from 40% to 60% or the value of IC50 was from 50 nM to 200 nM.). With `CN(C)c1nc(N[C@H]2CC[C@@H](CNC(=O)Nc3ccc(Br)cc3)CC2)nc2ccccc12` [compound 413] the class was 3 (Class 3: The value of percent of control at 10^−7 M was more than 60% or the value of IC50 was more than 200 nM.). For `CCCCNC(=O)NC[C@H]1CC[C@@H](Nc2nc(N(C)C)c3ccccc3n2)CC1` [compound 414, N-butyl-N′-[(cis-4-{[4-(dimethylamino)quinazolin-2-yl]amino}cyclohexyl)methyl]urea], the class was 2 (Class 2: The value of percent of control at 10^−7 M was from 40% to 60% or the value of IC50 was from 50 nM to 200 nM.). `CN(C)c1nc(N[C@H]2CC[C@@H](CNC(=O)Nc3cccc(Cl)c3)CC2)nc2ccccc12` [compound 415, N-(3-chlorophenyl)-N′-[(cis-4-{[4-(dimethylamino)quinazolin-2-yl]amino}cyclohexyl)methyl]urea] was tested, and the class was 2 (Class 2: The value of percent of control at 10^−7 M was from 40% to 60% or the value of IC50 was from 50 nM to 200 nM.). `CN(C)c1nc(N[C@H]2CC[C@@H](CNC(=O)Nc3ccc(Cl)cc3)CC2)nc2ccccc12` [compound 416] was tested, and the class was 3 (Class 3: The value of percent of control at 10^−7 M was more than 60% or the value of IC50 was more than 200 nM.). With `CN(C)c1nc(N[C@H]2CC[C@@H](CNC(=O)NC3CCCCC3)CC2)nc2ccccc12` [compound 417, N-cyclohexyl-N′-[(cis-4-{[4-(dimethylamino)quinazolin-2-yl]amino}cyclohexyl)methyl]urea] the class was 2 (Class 2: The value of percent of control at 10^−7 M was from 40% to 60% or the value of IC50 was from 50 nM to 200 nM.). For `CN(C)c1nc(N[C@H]2CC[C@@H](CNC(=O)Nc3cccc(C#N)c3)CC2)nc2ccccc12` [compound 418, N-(3-cyanophenyl)-N′-[(cis-4-{[4-(dimethylamino)quinazolin-2-yl]amino}cyclohexyl)methyl]urea], the class was 2 (Class 2: The value of percent of control at 10^−7 M was from 40% to 60% or the value of IC50 was from 50 nM to 200 nM.). For `CN(C)c1nc(N[C@H]2CC[C@@H](CNC(=O)Nc3ccccc3Cl)CC2)nc2ccccc12` [compound 419, N-(2-chlorophenyl)-N′-[(cis-4-{[4-(dimethylamino)quinazolin-2-yl]amino}cyclohexyl)methyl]urea], the class was 1 (Class 1: The value of percent of control at 10^−7 M was less than 40% or the value of IC50 was less than 50 nM.). In the case of `Cc1cccc(C)c1NC(=O)NC[C@H]1CC[C@@H](Nc2nc(N(C)C)c3ccccc3n2)CC1` [compound 420, N-[(cis-4-{[4-(dimethylamino)quinazolin-2-yl]amino}cyclohexyl)methyl]-N′-(2,6-dimethylphenyl)urea], the class is reported as 1 (Class 1: The value of percent of control at 10^−7 M was less than 40% or the value of IC50 was less than 50 nM.). `CN(C)c1nc(N[C@H]2CC[C@@H](CNC(=O)Nc3ccc(Cl)c(Cl)c3)CC2)nc2ccccc12` [compound 421, N-(3,4-dichlorophenyl)-N′-[(cis-4-{[4-(dimethylamino)quinazolin-2-yl]amino}cyclohexyl)methyl]urea] was tested, and the class was 2 (Class 2: The value of percent of control at 10^−7 M was from 40% to 60% or the value of IC50 was from 50 nM to 200 nM.). For `CN(C)c1nc(N[C@H]2CC[C@@H](CNC(=O)Nc3ccc(F)cc3F)CC2)nc2ccccc12` [compound 422, N-(2,4-difluorophenyl)-N′-[(cis-4-{[4-(dimethylamino)quinazolin-2-yl]amino}cyclohexyl)methyl]urea], the class was 1 (Class 1: The value of percent of control at 10^−7 M was less than 40% or the value of IC50 was less than 50 nM.). `CN(C)c1nc(N[C@H]2CC[C@@H](CNC(=O)Nc3ccc(Cl)cc3Cl)CC2)nc2ccccc12` [compound 423, N-(2,4-dichlorophenyl)-N′-[(cis-4-{[4-(dimethylamino)quinazolin-2-yl]amino}cyclohexyl)methyl]urea] was tested, and the class was 2 (Class 2: The value of percent of control at 10^−7 M was from 40% to 60% or the value of IC50 was from 50 nM to 200 nM.). For `CN(C)c1nc(N[C@H]2CC[C@@H](CNC(=O)Nc3cc(Cl)cc(Cl)c3)CC2)nc2ccccc12` [compound 424, N-(3,5-dichlorophenyl)-N′-[(cis-4-{[4-(dimethylamino)quinazolin-2-yl]amino}cyclohexyl)methyl]urea], the class was 1 (Class 1: The value of percent of control at 10^−7 M was less than 40% or the value of IC50 was less than 50 nM.). For `CN(C)c1nc(N[C@H]2CC[C@@H](CNC(=O)Nc3cccc(Cl)c3Cl)CC2)nc2ccccc12` [compound 425, N-(2,3-dichlorophenyl)-N′-[(cis-4-{[4-(dimethylamino)quinazolin-2-yl]amino}cyclohexyl)methyl]urea], the class was 1 (Class 1: The value of percent of control at 10^−7 M was less than 40% or the value of IC50 was less than 50 nM.). `CN(C)c1nc(N[C@H]2CC[C@@H](CNC(=O)Nc3c(F)cccc3F)CC2)nc2ccccc12` [compound 426, N-(2,6-difluorophenyl)-N′-[(cis-4-{[4-(dimethylamino)quinazolin-2-yl]amino}cyclohexyl)methyl]urea] was tested, and the class was 2 (Class 2: The value of percent of control at 10^−7 M was from 40% to 60% or the value of IC50 was from 50 nM to 200 nM.). `CN(C)c1nc(N[C@H]2CC[C@@H](CNC(=O)Nc3cc(Cl)ccc3Cl)CC2)nc2ccccc12` [compound 427] was tested, and the class was 3 (Class 3: The value of percent of control at 10^−7 M was more than 60% or the value of IC50 was more than 200 nM.). For `Cc1cccc(NC(=O)NC[C@H]2CC[C@@H](Nc3nc(N(C)C)c4ccccc4n3)CC2)c1C` [compound 428, N-[(cis-4-{[4-(dimethylamino)quinazolin-2-yl]amino}cyclohexyl)methyl]-N′-(2,3-dimethylphenyl)urea], the class was 1 (Class 1: The value of percent of control at 10^−7 M was less than 40% or the value of IC50 was less than 50 nM.). In the case of `CCOC(=O)CNC(=O)NC[C@H]1CC[C@@H](Nc2nc(N(C)C)c3ccccc3n2)CC1` [compound 429], the class is reported as 3 (Class 3: The value of percent of control at 10^−7 M was more than 60% or the value of IC50 was more than 200 nM.). With `CCOC(=O)c1cccc(NC(=O)NC[C@H]2CC[C@@H](Nc3nc(N(C)C)c4ccccc4n3)CC2)c1` [compound 430] the class was 3 (Class 3: The value of percent of control at 10^−7 M was more than 60% or the value of IC50 was more than 200 nM.). With `CCOC(=O)c1ccc(NC(=O)NC[C@H]2CC[C@@H](Nc3nc(N(C)C)c4ccccc4n3)CC2)cc1` [compound 431] the class was 3 (Class 3: The value of percent of control at 10^−7 M was more than 60% or the value of IC50 was more than 200 nM.). In the case of `CCc1ccc(NC(=O)NC[C@H]2CC[C@@H](Nc3nc(N(C)C)c4ccccc4n3)CC2)cc1` [compound 432, N-[(cis-4-{[4-(dimethylamino)quinazolin-2-yl]amino}cyclohexyl)methyl]-N′-(4-ethylphenyl)urea], the class is reported as 2 (Class 2: The value of percent of control at 10^−7 M was from 40% to 60% or the value of IC50 was from 50 nM to 200 nM.). In the case of `CCNC(=O)NC[C@H]1CC[C@@H](Nc2nc(N(C)C)c3ccccc3n2)CC1` [compound 433], the class is reported as 3 (Class 3: The value of percent of control at 10^−7 M was more than 60% or the value of IC50 was more than 200 nM.). With `CCc1cccc(C)c1NC(=O)NC[C@H]1CC[C@@H](Nc2nc(N(C)C)c3ccccc3n2)CC1` [compound 434, N-[(cis-4-{[4-(dimethylamino)quinazolin-2-yl]amino}cyclohexyl)methyl]-N′-(2-ethyl-6-methylphenyl)urea] the class was 1 (Class 1: The value of percent of control at 10^−7 M was less than 40% or the value of IC50 was less than 50 nM.). For `CN(C)c1nc(N[C@H]2CC[C@@H](CNC(=O)Nc3ccc(F)c([N+](=O)[O-])c3)CC2)nc2ccccc12` [compound 436], the class was 3 (Class 3: The value of percent of control at 10^−7 M was more than 60% or the value of IC50 was more than 200 nM.). With `CN(C)c1nc(N[C@H]2CC[C@@H](CNC(=O)Nc3ccc(F)cc3)CC2)nc2ccccc12` [compound 437, N-[(cis-4-{[4-(dimethylamino)quinazolin-2-yl]amino}cyclohexyl)methyl]-N′-(4-fluorophenyl)urea] the class was 1 (Class 1: The value of percent of control at 10^−7 M was less than 40% or the value of IC50 was less than 50 nM.). `CN(C)c1nc(N[C@H]2CC[C@@H](CNC(=O)Nc3cccc(F)c3)CC2)nc2ccccc12` [compound 438, N-[(cis-4-{[4-(dimethylamino)quinazolin-2-yl]amino}cyclohexyl)methyl]-N′-(3-fluorophenyl)urea] was tested, and the class was 2 (Class 2: The value of percent of control at 10^−7 M was from 40% to 60% or the value of IC50 was from 50 nM to 200 nM.). For `CN(C)c1nc(N[C@H]2CC[C@@H](CNC(=O)Nc3ccccc3F)CC2)nc2ccccc12` [compound 439, N-[(cis-4-{[4-(dimethylamino)quinazolin-2-yl]amino}cyclohexyl)methyl]-N′-(2-fluorophenyl)urea], the class was 2 (Class 2: The value of percent of control at 10^−7 M was from 40% to 60% or the value of IC50 was from 50 nM to 200 nM.). With `CC(C)c1ccc(NC(=O)NC[C@H]2CC[C@@H](Nc3nc(N(C)C)c4ccccc4n3)CC2)cc1` [compound 440] the class was 3 (Class 3: The value of percent of control at 10^−7 M was more than 60% or the value of IC50 was more than 200 nM.). `C=C(C)c1cccc(C(C)(C)NC(=O)NC[C@H]2CC[C@@H](Nc3nc(N(C)C)c4ccccc4n3)CC2)c1` [compound 441] was tested, and the class was 2 (Class 2: The value of percent of control at 10^−7 M was from 40% to 60% or the value of IC50 was from 50 nM to 200 nM.).
